Laboratory results published in patent US4477443A, “Tylosin derivatives, their preparation and pharmaceutical compositions containing them” (Zaidan Hojin Biselbutsu Kagaku Kenkyu Kai (Microbial …, priority 1981, dated 1984).
In brackets after ≈: the same amount, converted by molar mass. Like-named read-outs stand apart in the source and are kept apart here.

Legend:
Assay in all cases: antimicrobial activity (MIC), Table I
Assay type in all cases: cell-based
Staph. aureus 209 P = conditions: Staphylococcus aureus
E. coli NIHJ = conditions: Escherichia coli
E. coli K-12 R-5 = conditions: Escherichia coli, K12R5
[1] = test system: Shigella dysenteriae JS 11910; conditions: JS11910
Staph. aureus MS 9861 = conditions: Staphylococcus aureus, MS9861
Coryn. bovis 1810 = conditions: Corynebacterium bovis
B. subtilis NRRL B-558 = conditions: Bacillus subtilis, NRRLB558
Kleb. pneumoniae PCI 602 = conditions: Klebsiella pneumoniae, PCI602
E. coli K-12 = conditions: Escherichia coli, K12
Staph. aureus 193 = conditions: Staphylococcus aureus
Sarcina lutea PCI 1001 = conditions: Micrococcus luteus, PCI1001
Sal. enteritidis 1891 = conditions: Salmonella enterica
[2] = Staph. aureus 209 P, read-out: MIC
[3] = E. coli K-12 R-5, read-out: MIC
[4] = Staph. aureus MS 9861, read-out: MIC
[5] = Coryn. bovis 1810, read-out: MIC
[6] = B. subtilis NRRL B-558, read-out: MIC
[7] = Kleb. pneumoniae PCI 602, read-out: MIC
[8] = Staph. aureus 193, read-out: MIC
[9] = Sarcina lutea PCI 1001, read-out: MIC
[10] = Sal. enteritidis 1891, read-out: MIC

Compound	MIC (Staph. aureus 209 P; [2])	MIC (E. coli NIHJ; E. coli NIHJ, read-out: MIC)	MIC (E. coli K-12 R-5; [3])	MIC [1]	MIC (Staph. aureus MS 9861; [4])	MIC (Coryn. bovis 1810; [5])	MIC (B. subtilis NRRL B-558; [6])	MIC (Kleb. pneumoniae PCI 602; [7])	MIC (E. coli K-12; E. coli K-12, read-out: MIC)	MIC (Staph. aureus 193; [8])	MIC (Sarcina lutea PCI 1001; [9])	MIC (Sal. enteritidis 1891; [10])	further results
CCC1OC(=O)CC(O)C(C)C(OC2OC(C)CC(N(C)C)C2O)C(CC=O)CC(C)C(=O)C=CC(C)=CC1CN1CCOCC1 (stereo not drawn) [Example 29, 23,4'-dideoxy-23-morpholinomycaminosyl tylonolide]	0.39 µg/mL (≈ 0.599 µM)	3.12 µg/mL (≈ 4.79 µM)	12.5 µg/mL (≈ 19.2 µM)	0.39 µg/mL (≈ 0.599 µM)	0.78 µg/mL (≈ 1.2 µM)	< 0.2 µg/mL	0.39 µg/mL (≈ 0.599 µM)	3.12 µg/mL (≈ 4.79 µM)	25 µg/mL (≈ 38.4 µM)	0.39 µg/mL (≈ 0.599 µM)	< 0.2 µg/mL	12.5 µg/mL (≈ 19.2 µM)	–
CCC1OC(=O)CC(O)C(C)C(OC2OC(C)C(O)C(N(C)C)C2O)C(CC=O)CC(C)C(=O)C=CC(C)=CC1CN(C)Cc1ccccc1 (stereo not drawn) [Example 25, 23-deoxy-23-(N-methylbenzylamino)mycaminosyl tylonolide]	< 0.2 µg/mL	1.56 µg/mL (≈ 2.23 µM)	6.25 µg/mL (≈ 8.92 µM)	3.12 µg/mL (≈ 4.45 µM)	0.2 µg/mL (≈ 0.285 µM)	< 0.2 µg/mL	3.12 µg/mL (≈ 4.45 µM)	0.39 µg/mL (≈ 0.556 µM)	3.12 µg/mL (≈ 4.45 µM)	0.2 µg/mL (≈ 0.285 µM)	0.39 µg/mL (≈ 0.556 µM)	1.56 µg/mL (≈ 2.23 µM)	–
CCC1OC(=O)CC(O)C(C)C(OC2OC(C)CC(N(C)C)C2O)C(CC=O)CC(C)C(=O)C=CC(C)=CC1CNC(=O)c1ccccc1 (stereo not drawn) [Example 76, 23-Benzoylamino-23,4'-dideoxymycaminosyl tylonolide]	0.39 µg/mL (≈ 0.569 µM)	3.12 µg/mL (≈ 4.56 µM)	6.25 µg/mL (≈ 9.13 µM)	1.56 µg/mL (≈ 2.28 µM)	0.78 µg/mL (≈ 1.14 µM)	< 0.2 µg/mL	0.78 µg/mL (≈ 1.14 µM)	3.12 µg/mL (≈ 4.56 µM)	6.25 µg/mL (≈ 9.13 µM)	0.39 µg/mL (≈ 0.569 µM)	< 0.2 µg/mL	3.12 µg/mL (≈ 4.56 µM)	–
CCC1OC(=O)CC(O)C(C)C(OC2OC(C)CC(N(C)C)C2O)C(CC=O)CC(C)C(=O)C=CC(C)=CC1CN1CCN(C)CC1 (stereo not drawn) [Example 32, 23,4'-dideoxy-23-(4-methylpiperazin-1-yl)mycaminosyl tylonolide]	0.78 µg/mL (≈ 1.17 µM)	3.12 µg/mL (≈ 4.7 µM)	6.25 µg/mL (≈ 9.41 µM)	0.2 µg/mL (≈ 0.301 µM)	6.25 µg/mL (≈ 9.41 µM)	6.25 µg/mL (≈ 9.41 µM)	1.56 µg/mL (≈ 2.35 µM)	25 µg/mL (≈ 37.7 µM)	25 µg/mL (≈ 37.7 µM)	1.56 µg/mL (≈ 2.35 µM)	< 0.2 µg/mL	6.25 µg/mL (≈ 9.41 µM)	–
CCC1OC(=O)CC(O)C(C)C(OC2OC(C)C(O)C(N(C)C)C2O)C(CC=O)CC(C)C(=O)C=CC(C)=CC1CN(C)C1CCCCC1 (stereo not drawn) [Example 27, 23-deoxy-23-(N-methylcyclohexylamino)mycaminosyl tylonolide]	< 0.2 µg/mL	0.78 µg/mL (≈ 1.13 µM)	3.12 µg/mL (≈ 4.5 µM)	< 0.2 µg/mL	3.12 µg/mL (≈ 4.5 µM)	< 0.2 µg/mL	< 0.2 µg/mL	< 0.2 µg/mL	3.12 µg/mL (≈ 4.5 µM)	0.78 µg/mL (≈ 1.13 µM)	< 0.2 µg/mL	< 0.2 µg/mL	–
CCC1OC(=O)CC(O)C(C)C(OC2OC(C)CC(N(C)C)C2O)C(CC=O)CC(C)C(=O)C=CC(C)=CC1CN(CC)C(=O)Oc1ccccc1 (stereo not drawn) [Example 85, 23,4'-Dideoxy-23-N-ethylphenoxycarbonylaminomycaminosyl tylonolide]	–	–	–	0.78 µg/mL (≈ 1.07 µM)	–	–	–	–	–	–	–	–	MIC (Staph. aureus 209 P; 209P): < 0.2 µg/mL; MIC (E. coli NIHJ): 12.5 µg/mL (≈ 17.1 µM); MIC (E. coli K-12 R-5): 12.5 µg/mL (≈ 17.1 µM); MIC (Staph. aureus MS 9861): 0.39 µg/mL (≈ 0.535 µM); MIC (Coryn. bovis 1810; 1810): < 0.2 µg/mL; MIC (B. subtilis NRRL B-558): < 0.2 µg/mL; MIC (Kleb. pneumoniae PCI 602): 3.12 µg/mL (≈ 4.28 µM); MIC (E. coli K-12): 12.5 µg/mL (≈ 17.1 µM); MIC (Staph. aureus 193; 193): 0.39 µg/mL (≈ 0.535 µM); MIC (Sarcina lutea PCI 1001): < 0.2 µg/mL; MIC (Sal. enteritidis 1891; ENTERITIDIS): 12.5 µg/mL (≈ 17.1 µM)
CCC1OC(=O)CC(O)C(C)C(OC2OC(C)C(O)C(N(C)C)C2O)C(CC=O)CC(C)C(=O)C=CC(C)=CC1CN(C)CCc1ccccc1 (stereo not drawn) [Example 26, 23-deoxy-23-(N-methylphenethylamino)mycaminosyl tylonolide]	< 0.2 µg/mL	3.12 µg/mL (≈ 4.36 µM)	12.5 µg/mL (≈ 17.5 µM)	3.12 µg/mL (≈ 4.36 µM)	12.5 µg/mL (≈ 17.5 µM)	< 0.2 µg/mL	50 µg/mL (≈ 69.9 µM)	0.78 µg/mL (≈ 1.09 µM)	12.5 µg/mL (≈ 17.5 µM)	0.2 µg/mL (≈ 0.28 µM)	< 0.2 µg/mL	3.12 µg/mL (≈ 4.36 µM)	–
CCC1OC(=O)CC(O)C(C)C(OC2OC(C)CC(N(C)C)C2O)C(CC=O)CC(C)C(=O)C=CC(C)=CC1CNC(=O)Oc1ccccc1 (stereo not drawn) [Example 80, 23,4'-Dideoxy-23-phenoxycarbonylaminomycaminosyl tylonolide]	–	–	–	0.78 µg/mL (≈ 1.11 µM)	–	–	–	–	–	–	–	–	MIC (Staph. aureus 209 P; 209P): < 0.2 µg/mL; MIC (E. coli NIHJ): 3.12 µg/mL (≈ 4.45 µM); MIC (E. coli K-12 R-5): 6.25 µg/mL (≈ 8.92 µM); MIC (Staph. aureus MS 9861): < 0.2 µg/mL; MIC (Coryn. bovis 1810; 1810): < 0.2 µg/mL; MIC (B. subtilis NRRL B-558): 0.39 µg/mL (≈ 0.556 µM); MIC (Kleb. pneumoniae PCI 602): 1.56 µg/mL (≈ 2.23 µM); MIC (E. coli K-12): 6.25 µg/mL (≈ 8.92 µM); MIC (Staph. aureus 193; 193): < 0.2 µg/mL; MIC (Sarcina lutea PCI 1001): < 0.2 µg/mL; MIC (Sal. enteritidis 1891; ENTERITIDIS): 1.56 µg/mL (≈ 2.23 µM)
CCOC(=O)NCC1C=C(C)C=CC(=O)C(C)CC(CC=O)C(OC2OC(C)CC(N(C)C)C2O)C(C)C(O)CC(=O)OC1CC (stereo not drawn) [Example 78, 23,4'-Dideoxy-23-ethoxycarbonylaminomycaminosyl tylonolide]	< 0.2 µg/mL	3.12 µg/mL (≈ 4.78 µM)	6.25 µg/mL (≈ 9.57 µM)	1.56 µg/mL (≈ 2.39 µM)	0.39 µg/mL (≈ 0.597 µM)	< 0.2 µg/mL	0.39 µg/mL (≈ 0.597 µM)	3.12 µg/mL (≈ 4.78 µM)	12.5 µg/mL (≈ 19.1 µM)	< 0.2 µg/mL	< 0.2 µg/mL	3.12 µg/mL (≈ 4.78 µM)	–
CCC1OC(=O)CC(O)C(C)C(OC2OC(C)CC(N(C)C)C2O)C(CC=O)CC(C)C(=O)C=CC(C)=CC1CN(CC)C(=O)OC (stereo not drawn) [Example 83, 23,4'-Dideoxy-23-N-ethylmethoxycarbonylaminomycaminosyl tylonolide]	< 0.2 µg/mL	6.25 µg/mL (≈ 9.37 µM)	12.5 µg/mL (≈ 18.7 µM)	1.56 µg/mL (≈ 2.34 µM)	0.39 µg/mL (≈ 0.585 µM)	< 0.2 µg/mL	< 0.2 µg/mL	12.5 µg/mL (≈ 18.7 µM)	12.5 µg/mL (≈ 18.7 µM)	< 0.2 µg/mL	< 0.2 µg/mL	6.25 µg/mL (≈ 9.37 µM)	–
CCC1OC(=O)CC(O)C(C)C(OC2OC(C)CC(N(C)C)C2O)C(CC=O)CC(C)C(=O)C=CC(C)=CC1CN1CCC(=O)CC1 (stereo not drawn) [Example 28, 23,4'-dideoxy-23-(4-pipridone)mycaminosyl tylonolide]	< 0.2 µg/mL	3.12 µg/mL (≈ 4.71 µM)	6.25 µg/mL (≈ 9.43 µM)	0.78 µg/mL (≈ 1.18 µM)	0.39 µg/mL (≈ 0.588 µM)	0.39 µg/mL (≈ 0.588 µM)	< 0.2 µg/mL	1.56 µg/mL (≈ 2.35 µM)	6.25 µg/mL (≈ 9.43 µM)	< 0.2 µg/mL	< 0.2 µg/mL	6.25 µg/mL (≈ 9.43 µM)	–
CCC1OC(=O)CC(O)C(C)C(OC2OC(C)CC(N(C)C)C2O)C(CC=O)CC(C)C(=O)C=CC(C)=CC1CN1CCCCC1CO (stereo not drawn) [Example 31, 23,4'-dideoxy-23-[2-(hydroxymethyl)piperidino]mycaminosyl tylonolide]	< 0.2 µg/mL	0.39 µg/mL (≈ 0.574 µM)	0.78 µg/mL (≈ 1.15 µM)	0.78 µg/mL (≈ 1.15 µM)	0.39 µg/mL (≈ 0.574 µM)	0.39 µg/mL (≈ 0.574 µM)	0.39 µg/mL (≈ 0.574 µM)	0.78 µg/mL (≈ 1.15 µM)	0.78 µg/mL (≈ 1.15 µM)	0.39 µg/mL (≈ 0.574 µM)	< 0.2 µg/mL	0.39 µg/mL (≈ 0.574 µM)	–
